Data on 20 compounds can be found in patent US20230045421A1 (priority 2018, published 2023).

What is called EC50 is the midpoint of the concentration-response curve.

The subject of this test is HBV rcDNA. The test is described as follows: HepDE19 assay with bDNA quantitation of HBV rcDNA. The format is cell-based, hepatitis B virus. To be noted: HepDE19 assay, inhibition of formation of relaxed circular DNA (rcDNA), bDNA quantitation; read-out: DE-19bDNA EC50. Summed up: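 HepDE19 cells (HepG2-derived, Tet-regulated HBV replication) were deprived of tetracycline and then exposed to compounds for 7 days at 37 °C in 0.5% DMSO, 8-point titration from 25 μM. rcDNA was quantified by bDNA and EC50/EC90 came from 4-parameter fits. CC50 was measured by CellTiter-Glo ATP content on replicate plates after 4 days.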
Consider `CC(C)CN(C(=O)Nc1ccc(F)c(Cl)c1)C(C)c1cn(C)c(=O)c2cc(F)c(F)cc12` (single isomer, unassigned) [Compound 343, 3-(3-Chloro-4-fluorophenyl)-1-(1-(6,7-difluoro-2-methyl-1-oxo-1,2-dihydroisoquinolin-4-yl)ethyl)-1-isobutylurea], for which the EC50 was determined as 6 nM.
Next, `CC(C)CN(C(=O)Nc1ccc(F)c(Cl)c1)C(C)c1cnc(-n2cncn2)c2ccccc12` (single isomer, unassigned) [Compound 344, 1-(1-(1-(1H-1,2,4-triazol-1-yl)isoquinolin-4-yl)ethyl)-3-(3-chloro-4-fluorophenyl)-1-isobutylurea]: 2300 nM.
To `CC(C)CN(C(=O)Nc1ccc(F)c(Cl)c1)C(C)c1cnc(-n2cncn2)c2ccccc12` (single isomer, unassigned) [Compound 345, 1-(1-(1-(1H-1,2,4-triazol-1-yl)isoquinolin-4-yl)ethyl)-3-(3-chloro-4-fluorophenyl)-1-isobutylurea] belongs 9.5 nM.
In the case of `CC(c1cnc(OCc2ncn(C)n2)c2cc(F)c(F)cc12)N(C)C(=O)Nc1ccc(F)c(Cl)c1` (single isomer, unassigned) [Compound 346, 3-(3-Chloro-4-fluorophenyl)-1-(1-(6,7-difluoro-1-((1-methyl-1H-1,2,4-triazol-3-yl)methoxy)isoquinolin-4-yl)ethyl)-1-methylurea], the EC50 came to 670 nM.
In the case of `CC(c1cnc(OCc2ncn(C)n2)c2cc(F)c(F)cc12)N(C)C(=O)Nc1ccc(F)c(Cl)c1` (single isomer, unassigned) [Compound 347, 3-(3-Chloro-4-fluorophenyl)-1-(1-(6,7-difluoro-1-((1-methyl-1H-1,2,4-triazol-3-yl)methoxy)isoquinolin-4-yl)ethyl)-1-methylurea], the EC50 amounted to 7 nM.
As for `CC(c1cnc(OCc2ncn(C)n2)c2cc(F)c(F)cc12)N(CCCO)C(=O)Nc1ccc(F)c(Cl)c1` (single isomer, unassigned) [Compound 348, 3-(3-chloro-4-fluorophenyl)-1-(1-(6,7-difluoro-1-((1-methyl-1H-1,2,4-triazol-3-yl)methoxy)isoquinolin-4-yl)ethyl)-1-(3-hydroxypropyl)urea], the concentration giving a half-maximal response (EC50) was determined as 1100 nM.
Regarding `CC(c1cnc(OCc2ncn(C)n2)c2cc(F)c(F)cc12)N(CCCO)C(=O)Nc1ccc(F)c(Cl)c1` (single isomer, unassigned) [Compound 349, 3-(3-chloro-4-fluorophenyl)-1-(1-(6,7-difluoro-1-((1-methyl-1H-1,2,4-triazol-3-yl)methoxy)isoquinolin-4-yl)ethyl)-1-(3-hydroxypropyl)urea], the EC50 was 5 nM.
As for `CC(c1cn(C)c(=O)c2cc(F)c(F)cc12)N(CCCO)C(=O)Nc1ccc(F)c(Cl)c1` (single isomer, unassigned) [Compound 350, 3-(3-Chloro-4-fluorophenyl)-1-(1-(6,7-difluoro-2-methyl-1-oxo-1,2-dihydroisoquinolin-4-yl)ethyl)-1-(3-hydroxypropyl)urea], the 50% effective concentration (EC50) stood at 3600 nM.
To `CC(c1cn(C)c(=O)c2cc(F)c(F)cc12)N(CCCO)C(=O)Nc1ccc(F)c(Cl)c1` (single isomer, unassigned) [Compound 351, 3-(3-Chloro-4-fluorophenyl)-1-(1-(6,7-difluoro-2-methyl-1-oxo-1,2-dihydroisoquinolin-4-yl)ethyl)-1-(3-hydroxypropyl)urea] belongs 7 nM; to `Cc1ncc(C(C)N(C)C(=O)Nc2ccc(F)c(Cl)c2)c2ccccc12` (single isomer, unassigned) [Compound 352, 3-(3-Chloro-4-fluorophenyl)-1-methyl-1-(1-(1-methylisoquinolin-4-yl)ethyl)urea], 9900 nM; to `Cc1ncc(C(C)N(C)C(=O)Nc2ccc(F)c(Cl)c2)c2ccccc12` (single isomer, unassigned) [Compound 353, 3-(3-Chloro-4-fluorophenyl)-1-methyl-1-(1-(1-methylisoquinolin-4-yl)ethyl)urea], 190 nM.
Next, `CC(c1c[nH]c(=O)c2c(F)cccc12)N(C)C(=O)Nc1ccc(F)c(Cl)c1` (single isomer, unassigned) [Compound 356, 3-(3-Chloro-4-fluorophenyl)-1-(1-(8-fluoro-1-oxo-1,2-dihydroisoquinolin-4-yl)ethyl)-1-methylurea]: 1900 nM.
As to `CC(c1c[nH]c(=O)c2c(F)cccc12)N(C)C(=O)Nc1ccc(F)c(Cl)c1` (single isomer, unassigned) [Compound 357, 3-(3-Chloro-4-fluorophenyl)-1-(1-(8-fluoro-1-oxo-1,2-dihydroisoquinolin-4-yl)ethyl)-1-methylurea], the EC50 was determined as 40 nM.
To `CC(c1cn(C)c(=O)c2c(F)cccc12)N(C)C(=O)Nc1ccc(F)c(Cl)c1` (single isomer, unassigned) [Compound 358, 3-(3-Chloro-4-fluorophenyl)-1-(1-(8-fluoro-2-methyl-1-oxo-1,2-dihydroisoquinolin-4-yl)ethyl)-1-methylurea] belongs 5900 nM; to `CC(c1cn(C)c(=O)c2c(F)cccc12)N(C)C(=O)Nc1ccc(F)c(Cl)c1` (single isomer, unassigned) [Compound 359, 3-(3-Chloro-4-fluorophenyl)-1-(1-(8-fluoro-2-methyl-1-oxo-1,2-dihydroisoquinolin-4-yl)ethyl)-1-methylurea], 23 nM.
As to `CC(C)CN(C(=O)Nc1ccc(F)c(Cl)c1)C(C)c1c[nH]c(=O)c2c(F)cccc12` (single isomer, unassigned) [Compound 360, 3-(3-Chloro-4-fluorophenyl)-1-(1-(8-fluoro-1-oxo-1,2-dihydroisoquinolin-4-yl)ethyl)-1-isobutylurea], the half-maximal effective concentration (EC50) came out at 180 nM.
As for `CC(C)CN(C(=O)Nc1ccc(F)c(Cl)c1)C(C)c1c[nH]c(=O)c2c(F)cccc12` (single isomer, unassigned) [Compound 361, 3-(3-Chloro-4-fluorophenyl)-1-(1-(8-fluoro-1-oxo-1,2-dihydroisoquinolin-4-yl)ethyl)-1-isobutylurea], the EC50 worked out at 12 nM.
For the compound `CC(c1cnc(OCc2nc[nH]n2)c2cc(F)c(F)cc12)N(C)C(=O)Nc1ccc(F)c(Cl)c1` (single isomer, unassigned) [Compound 362, 1-(1-(1-((1H-1,2,4-Triazol-3-yl)methoxy)-6,7-difluoroisoquinolin-4-yl)ethyl)-3-(3-chloro-4-fluorophenyl)-1-methylurea], the EC50 worked out at 890 nM.
For `CC(c1cnc(OCc2nc[nH]n2)c2cc(F)c(F)cc12)N(C)C(=O)Nc1ccc(F)c(Cl)c1` (single isomer, unassigned) [Compound 363, 1-(1-(1-((1H-1,2,4-Triazol-3-yl)methoxy)-6,7-difluoroisoquinolin-4-yl)ethyl)-3-(3-chloro-4-fluorophenyl)-1-methylurea], the EC50 worked out at 14 nM.
Next, `CC(c1cnc(OCc2nc[nH]n2)c2cc(F)c(F)cc12)N(CCCO)C(=O)Nc1ccc(F)c(Cl)c1` (single isomer, unassigned) [Compound 364, 1-(1-(1-((1H-1,2,4-Triazol-3-yl)methoxy)-6,7-difluoroisoquinolin-4-yl)ethyl)-3-(3-chloro-4-fluorophenyl)-1-(3-hydroxypropyl)urea]: 2000 nM.
